Reference: patent US9994913B2, “Methods and compositions for detecting and treating drug resistant AKT mutant” (Genentech, Inc., priority 2013, dated 2018)
“Also recorded” adds a separate entry of the source.

Experiments:
Assay type in all cases: cell-based
IGROV1 cells = test: Treatment of parental and AKT-inhibitor-resistant IGROV1 ovarian cancer cells (FIGS. 7-9); settings: for potency in parental and resistant lines: all IGROV1 lines, FIG. 9
Experimental: (§1) The in vitro potency of the combinations of the compound of Example 2 with certain specific chemotherapeutic agents was measured using the CellTiterGlo® Luminescent Cell Viability Assay, commercially available from Promega Corp., Madison, Wis. This homogeneous assay method is based on the recombinant expression of Coleoptera luciferase (U.S. Pat. Nos. 5,583,024; 5,674,713; 5,700,670) and determines the number of viable cells in culture based on quantitation of the ATP present, an indicator of metabolically active cells (Crouch et al (1993) J. Immunol. Meth. 160:81-88; U.S. Pat. No. 6,602,677). The CellTiter-Glo® Assay was conducted in 96 or 384 well format, making it amenable to automated high-throughput screening (HTS) (Cree et al (1995) AntiCancer Drugs 6:398-404). The homogeneous assay procedure involves adding the single reagent (CellTiter-Glo® Reagent) directly to cells cultured in serum-supplemented medium. Cell washing, removal of medium and multiple pipetting steps are not required. The system detects as few as 15 cells/well in a 384-well format in 10 minutes after adding reagent and mixing.
The homogeneous “add-mix-measure” format results in cell lysis and generation of a luminescent signal proportional to the amount of ATP present. The amount of ATP is directly proportional to the number of cells present in culture. The CellTiterGlo® Assay generates a “glow-type” luminescent signal, produced by the luciferase reaction, which has a half-life generally greater than five hours, depending on cell type and medium used. Viable cells are reflected in relative luminescence units (RLU). The substrate, Beetle Luciferin, is oxidatively decarboxylated by recombinant firefly luciferase with concomitant conversion of ATP to AMP and generation of photons. The extended half-life eliminates the need to use reagent injectors and provides flexibility for continuous or batch mode processing of multiple plates. This cell proliferation assay can be used with various multiwell formats, e.g. 96 or 384 well format. Data can be recorded by luminometer or CCD camera imaging device. The luminescence output is presented as relative light units (RLU), measured over time.

Akt = test: Western blot of AKT inhibitor dosed LNCaP cells, Akt phosphorylation and inhibitor binding (FIGS. 3-4); settings: MK2206 resistant LNCaP cells vs parental lines
Description: (§2) FIGS. 3-4 show Western blot analysis of AKT inhibitor dosed to cancer cells (LNCaP cells).

pS6 = test: Western blot of AKT inhibitor dosed LNCaP cells, downstream pS6 (FIGS. 3-4)
Description: as §2

LNCaP cells = test: Dose response of AKT inhibitors in parental and AKT-inhibitor-resistant LNCaP cells (FIGS. 1-2, 6)
Experimental: Resistant clones to both inhibitors were derived from populations of cancer cells treated with increasing doses of AKT inhibitor over time. […] For MK2206, cells that are ˜40× less sensitive were cloned.
as §1
The homogeneous “add-mix-measure” format results in cell lysis and generation of a luminescent signal proportional to the amount of ATP present. The amount of ATP is directly proportional to the number of cells present in culture. The CellTiterGlo® Assay generates a “glow-type” luminescent signal, produced by the luciferase reaction, which has a half-life generally greater than five hours, depending on cell type and medium used. Viable cells are reflected in relative luminescence units (RLU). […] Data can be recorded by luminometer or CCD camera imaging device. The luminescence output is presented as relative light units (RLU), measured over time.

## CS(=O)(=O)N1CCN(Cc2cc3nc(-c4cccc5[nH]ncc45)nc(N4CCOCC4)c3s2)CC1 [GDC-0941]
IGROV1 cells
  potency in parental and resistant lines: remain potent

## NC1(c2ccc(-c3nc4ccn5c(=O)[nH]nc5c4cc3-c3ccccc3)cc2)CCC1 [MK2206, 8-[4-(1-aminocyclobutyl)phenyl]-9-phenyl-1,2,4-triazolo[3,4-f][1,6]naphthyridin-3(2H)-one]
IGROV1 cells; IGROV1 cells resistant to GDC0068 and cells resistant to MK2206
  resistance to allosteric inhibition: equally resistant
Akt
  inhibition of Akt phosphorylation: failed to inhibit Akt phosphorylation
pS6; MK2206 resistant LNCaP cells
  inhibition of pS6: lost the inhibition of pS6
LNCaP cells; GDC-0068 selected LNCaP cells, FIG. 6
  resistance of GDC-0068 selected cells to the inhibitor: similarly resistant
LNCaP cells; LNCaP clones derived under increasing doses of MK2206
  fold less sensitive to MK2206, resistant clones vs parental: ~40 ×

## Cc1c(CN2CCN(C(=O)[C@H](C)O)CC2)sc2c(N3CCOCC3)nc(-c3cnc(N)nc3)nc12 [GDC-0980]
IGROV1 cells
  potency in parental and resistant lines: remain potent

## CC(C)NC[C@@H](C(=O)N1CCN(c2ncnc3c2[C@H](C)C[C@H]3O)CC1)c1ccc(Cl)cc1 [GDC-0068, (S)-2-(4-chlorophenyl)-1-(4-((5R,7R)-7-hydroxy-5-methyl-6,7-dihydro-5H-cyclopenta [d]pyrimidin-4-yl)piperazin-1-yl)-3-(isopropylamino)propan-1-one]
IGROV1 cells; IGROV1 cells resistant to GDC0068, GDC-0068 compared with MK2206
  resistance of GDC0068-resistant cells to the inhibitor: more resistant to GDC-0068 than MK2206
pS6; GDC-0068 resistant LNCaP cells
  inhibition of downstream pS6: less potent
LNCaP cells; MK2206-resistant LNCaP cells, FIG. 6
  sensitivity of MK2206-resistant cells to the inhibitor: still sensitive; also recorded: remain sensitvie
